Like-named read-outs stand apart in the source and are kept apart here.
Legend:
Format in all cases: cell-based
[1] = target: T1, rNaV1.4 (Rattus norvegicus, UniProt P15390); experiment: Whole-cell patch-clamp inhibition of rNaV1.4 in HEK 293 cells; settings: HEK 293 cells with β1 subunit, 50-ms depolarization to −10 mV from −100 mV every 5 s, Hill fit, mean ± S.E., room temperature
T1 construct: expressed in transfected cells; host or cells: HEK 293 cells, transient transfection
From the text: (§1) Using whole-cell voltage clamp recording techniques, currents were elicited by a 50-ms depolarizing potential of −10 mV from a holding potential of −100 mV every 5 s. […] The time constants for these inhibitions were 34.01 ± 6.81 and 34.24 ± 8.13 s, respectively (Figure 1a,d). […] Dose-response curves for NaV1 subtypes tested are summarized in Figure 1e and consist of at least three data points for each concentration.
After purification, we characterized the interaction of each mutant toxin with NaV1.4. Under whole-cell patch clamp configuration, rNaV1.4 current was elicited by a 50-ms depolarizing potential of −10 mV from a holding potential of −100 mV every 5 s.
All the voltage gated sodium channels subtypes (hNaV1.3, rNaV1.4, hNaV1.5 and hNaV1.7), along with β1 subunit to increase the current density and green fluorescent protein to serve as the report protein, were individually transiently transfected into HEK 293 cells using the lipofectamine 2000 (Invitrogen, Carlsbad, CA, USA) according to its manufacturer’s instructions. HEK293 cells were cultured under standard cell culture condition (5% CO2; 37 °C) in DMEM supplemented with 10% FBS. At 36–72 h after transfection, cells with green fluorescence were selected for whole-cell patch-clamp recording at room temperature. The pipette solution contained (in mM): 140 CsF, 10 NaCl, 10 HEPES and 1 EGFA, pH7.3. The bathing solution contained (in mM): 140 NaCl, 10 HEPES, 3 KCl, 1 MgCl2 and 1 CaCl2, pH7.3.
Sodium currents were recorded on experimental cells using whole-cell patch-clamp techniques at room temperature (20–25 °C). Patch pipettes with DC resistance of 2~3 MΩ were fabricated from borosilicate glass tubing (VWR micropipettes; VWR Co., West Chester, PA, USA) using a two-stage vertical microelectrode puller (PC-10; Narishige, Tokyo, Japan) and fire-polished by a heater (Narishige, Tokyo, Japan). Whole-cell patch-clamp recordings were performed by an Axon 700B patch-clamp amplifier (Axon Instruments, Irvine, CA, USA). The P/4 protocol was used to subtract linear capacitive and leakage currents. Experimental data were acquired and analyzed using the programs Clampfit 10.0 (Axon Instruments, Irvine, CA, USA) and Sigmaplot 90 (Sigma, St. Louis, MO, USA).
Before use, the solution was diluted to the concentration of interest with fresh bathing solution. Toxin was introduced into the recording chamber (volume of 300 μL) and mixed by repeatedly pipetting 30 μL to achieve the demanded final concentration. The mixing process typically took ~5 s.
Data were analyzed using the Clampfit (Molecular Devices, Irvine, CA, USA) and Sigmaplot 10.0 (Sigma, St. Louis, MO, USA) software programs. All data points are shown as mean ± S.E. n is the number of the separated experimental cells. […] The Hill coefficient was set to 1 except where indicated. The box plots were generated at http://boxplot.tyerslab.com. In the box plots, center lines show the medians; box limits indicate the 25th and 75th percentiles as determined by R software; whiskers extend 1.5 times the interquartile range from the 25th and 75th percentiles, outliers are represented by dots. Time courses were fitted by using single exponential decay function.

[2] = target: T2, hNaV1.7 (Homo sapiens, UniProt Q15858); experiment: Whole-cell patch-clamp inhibition of hNaV1.7 in HEK 293 cells; settings: 100 nM toxin, approximate
T2 construct: expressed in transfected cells; host or cells: HEK 293 cells, transient transfection

[3] = target: T3, hNaV1.3 (Homo sapiens, UniProt Q9NY46); experiment: Whole-cell patch-clamp inhibition of hNaV1.3 in HEK 293 cells; settings: 100 nM toxin, approximate
T3 construct: expressed in transfected cells; host or cells: HEK 293 cells, transient transfection

[4] = target: T4, hNaV1.5 (Homo sapiens, UniProt Q14524); experiment: Whole-cell patch-clamp inhibition of hNaV1.5 in HEK 293 cells
T4 construct: expressed in transfected cells; host or cells: HEK 293 cells, transient transfection
T4 sequence (Q14524 whole entry): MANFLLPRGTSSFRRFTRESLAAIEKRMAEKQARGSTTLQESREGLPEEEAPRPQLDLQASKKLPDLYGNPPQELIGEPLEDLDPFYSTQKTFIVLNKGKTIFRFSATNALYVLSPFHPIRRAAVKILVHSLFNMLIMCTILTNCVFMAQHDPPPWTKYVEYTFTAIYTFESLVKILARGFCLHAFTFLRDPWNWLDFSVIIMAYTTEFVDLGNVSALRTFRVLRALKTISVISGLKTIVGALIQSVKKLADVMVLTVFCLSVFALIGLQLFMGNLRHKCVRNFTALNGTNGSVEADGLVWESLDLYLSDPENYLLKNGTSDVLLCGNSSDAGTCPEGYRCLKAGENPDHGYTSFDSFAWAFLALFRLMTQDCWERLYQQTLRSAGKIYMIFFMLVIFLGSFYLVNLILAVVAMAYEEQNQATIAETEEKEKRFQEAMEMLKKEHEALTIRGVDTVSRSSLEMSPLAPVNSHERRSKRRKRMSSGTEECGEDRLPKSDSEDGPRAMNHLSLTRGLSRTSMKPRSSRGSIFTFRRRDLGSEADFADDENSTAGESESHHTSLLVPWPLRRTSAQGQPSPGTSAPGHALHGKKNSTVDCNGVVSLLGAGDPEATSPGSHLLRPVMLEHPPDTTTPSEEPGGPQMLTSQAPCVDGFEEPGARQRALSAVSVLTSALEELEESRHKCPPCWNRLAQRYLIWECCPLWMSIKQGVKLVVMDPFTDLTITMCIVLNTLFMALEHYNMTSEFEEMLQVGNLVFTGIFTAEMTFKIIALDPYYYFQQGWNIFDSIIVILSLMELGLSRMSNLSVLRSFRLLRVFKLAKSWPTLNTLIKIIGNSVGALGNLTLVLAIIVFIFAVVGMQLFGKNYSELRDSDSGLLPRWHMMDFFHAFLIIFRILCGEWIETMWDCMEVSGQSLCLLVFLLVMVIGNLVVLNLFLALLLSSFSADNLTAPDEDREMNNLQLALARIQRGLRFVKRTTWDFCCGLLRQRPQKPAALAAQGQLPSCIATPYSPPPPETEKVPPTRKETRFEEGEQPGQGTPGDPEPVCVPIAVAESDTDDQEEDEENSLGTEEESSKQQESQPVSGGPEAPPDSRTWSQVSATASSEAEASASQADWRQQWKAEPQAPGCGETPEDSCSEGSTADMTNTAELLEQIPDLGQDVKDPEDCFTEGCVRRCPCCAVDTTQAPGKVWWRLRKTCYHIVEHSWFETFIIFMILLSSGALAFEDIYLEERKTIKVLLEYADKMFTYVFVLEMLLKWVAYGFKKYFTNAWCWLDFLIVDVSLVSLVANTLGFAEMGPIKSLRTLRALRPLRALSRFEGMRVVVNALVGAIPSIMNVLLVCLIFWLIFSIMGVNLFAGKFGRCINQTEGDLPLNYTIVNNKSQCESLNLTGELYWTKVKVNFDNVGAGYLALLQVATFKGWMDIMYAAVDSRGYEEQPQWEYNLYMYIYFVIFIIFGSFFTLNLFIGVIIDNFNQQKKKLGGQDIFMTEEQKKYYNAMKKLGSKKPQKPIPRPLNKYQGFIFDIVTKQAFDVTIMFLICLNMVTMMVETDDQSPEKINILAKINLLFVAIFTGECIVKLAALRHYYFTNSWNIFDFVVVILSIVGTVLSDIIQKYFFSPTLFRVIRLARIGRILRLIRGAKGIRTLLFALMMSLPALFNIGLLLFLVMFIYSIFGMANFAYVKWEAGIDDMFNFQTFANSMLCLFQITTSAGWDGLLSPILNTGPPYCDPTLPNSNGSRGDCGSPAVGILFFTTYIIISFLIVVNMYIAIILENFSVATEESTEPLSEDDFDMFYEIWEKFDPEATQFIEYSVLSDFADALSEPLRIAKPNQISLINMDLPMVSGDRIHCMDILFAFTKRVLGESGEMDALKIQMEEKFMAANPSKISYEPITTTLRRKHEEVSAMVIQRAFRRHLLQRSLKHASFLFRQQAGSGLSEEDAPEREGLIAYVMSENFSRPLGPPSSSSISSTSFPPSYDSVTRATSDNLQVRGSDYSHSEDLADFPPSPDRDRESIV
From the text: as §1
All the voltage gated sodium channels subtypes (hNaV1.3, rNaV1.4, hNaV1.5 and hNaV1.7), along with β1 subunit to increase the current density and green fluorescent protein to serve as the report protein, were individually transiently transfected into HEK 293 cells using the lipofectamine 2000 (Invitrogen, Carlsbad, CA, USA) according to its manufacturer’s instructions. […] At 36–72 h after transfection, cells with green fluorescence were selected for whole-cell patch-clamp recording at room temperature. […]
Sodium currents were recorded on experimental cells using whole-cell patch-clamp techniques at room temperature (20–25 °C). […] Experimental data were acquired and analyzed using the programs Clampfit 10.0 (Axon Instruments, Irvine, CA, USA) and Sigmaplot 90 (Sigma, St. Louis, MO, USA). […]
Data were analyzed using the Clampfit (Molecular Devices, Irvine, CA, USA) and Sigmaplot 10.0 (Sigma, St. Louis, MO, USA) software programs. […]

[5] = read-out: IC50 on rNaV1.4 (alanine mutants)

T1 sequence (P15390 whole entry): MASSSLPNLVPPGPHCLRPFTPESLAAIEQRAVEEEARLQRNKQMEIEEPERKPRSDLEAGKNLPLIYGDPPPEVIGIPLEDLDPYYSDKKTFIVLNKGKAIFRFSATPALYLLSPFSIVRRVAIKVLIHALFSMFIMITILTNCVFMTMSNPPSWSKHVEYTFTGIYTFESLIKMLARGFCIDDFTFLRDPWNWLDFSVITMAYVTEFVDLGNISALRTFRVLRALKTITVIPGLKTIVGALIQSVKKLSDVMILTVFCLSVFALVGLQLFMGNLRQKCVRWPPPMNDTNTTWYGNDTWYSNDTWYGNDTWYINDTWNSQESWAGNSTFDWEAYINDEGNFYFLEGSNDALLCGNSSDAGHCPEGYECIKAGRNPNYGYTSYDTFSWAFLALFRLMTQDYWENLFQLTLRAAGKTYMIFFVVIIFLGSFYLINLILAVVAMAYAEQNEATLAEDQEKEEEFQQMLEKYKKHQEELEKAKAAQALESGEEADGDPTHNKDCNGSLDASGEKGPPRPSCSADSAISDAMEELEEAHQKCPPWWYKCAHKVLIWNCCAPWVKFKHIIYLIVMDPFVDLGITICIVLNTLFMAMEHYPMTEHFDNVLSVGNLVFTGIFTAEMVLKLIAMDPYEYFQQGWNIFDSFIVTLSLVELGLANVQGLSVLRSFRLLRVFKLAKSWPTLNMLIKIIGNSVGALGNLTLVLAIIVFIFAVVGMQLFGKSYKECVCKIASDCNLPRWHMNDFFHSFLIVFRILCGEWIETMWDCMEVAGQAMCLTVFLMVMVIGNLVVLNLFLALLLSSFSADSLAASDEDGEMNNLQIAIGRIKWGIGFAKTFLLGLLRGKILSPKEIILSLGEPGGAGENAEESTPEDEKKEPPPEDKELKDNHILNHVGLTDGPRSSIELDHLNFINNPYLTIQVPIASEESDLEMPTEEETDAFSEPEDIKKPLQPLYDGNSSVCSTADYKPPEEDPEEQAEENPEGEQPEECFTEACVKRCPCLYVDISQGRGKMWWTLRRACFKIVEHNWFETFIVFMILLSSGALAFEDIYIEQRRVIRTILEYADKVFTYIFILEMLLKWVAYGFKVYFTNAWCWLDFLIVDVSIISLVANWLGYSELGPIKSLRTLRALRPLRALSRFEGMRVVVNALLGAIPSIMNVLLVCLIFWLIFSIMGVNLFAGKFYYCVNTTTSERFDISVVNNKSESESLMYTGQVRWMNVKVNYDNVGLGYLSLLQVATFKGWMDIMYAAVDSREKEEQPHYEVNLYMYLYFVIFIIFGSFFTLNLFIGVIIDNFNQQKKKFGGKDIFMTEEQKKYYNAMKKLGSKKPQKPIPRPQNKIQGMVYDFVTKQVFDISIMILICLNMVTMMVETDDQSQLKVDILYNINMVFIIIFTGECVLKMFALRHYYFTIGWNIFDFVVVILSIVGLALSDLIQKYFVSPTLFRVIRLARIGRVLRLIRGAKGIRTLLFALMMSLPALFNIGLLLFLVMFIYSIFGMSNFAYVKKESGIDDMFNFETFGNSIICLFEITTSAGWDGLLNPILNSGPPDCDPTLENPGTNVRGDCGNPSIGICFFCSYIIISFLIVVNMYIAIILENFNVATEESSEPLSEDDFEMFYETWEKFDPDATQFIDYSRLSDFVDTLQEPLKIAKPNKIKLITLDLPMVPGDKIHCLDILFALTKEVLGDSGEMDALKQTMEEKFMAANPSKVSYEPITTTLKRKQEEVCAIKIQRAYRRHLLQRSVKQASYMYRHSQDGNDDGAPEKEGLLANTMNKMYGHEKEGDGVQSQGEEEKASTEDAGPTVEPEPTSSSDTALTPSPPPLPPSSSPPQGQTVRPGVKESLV
T1 sequence (Q07699 19-218, further chain): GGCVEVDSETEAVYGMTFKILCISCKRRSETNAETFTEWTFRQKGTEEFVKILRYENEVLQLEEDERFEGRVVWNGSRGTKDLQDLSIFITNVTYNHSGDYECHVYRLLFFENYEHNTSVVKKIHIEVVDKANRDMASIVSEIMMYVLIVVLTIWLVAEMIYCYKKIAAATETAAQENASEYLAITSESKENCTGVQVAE

| SMILES | IC50 [1, 5] [nM] | also measured |
| --- | --- | --- |
| CC[C@H](C)[C@H](NC(=O)[C@@H](NC(=O)[C@H](CCCCN)NC(=O)[C@H](CCCNC(=N)N)NC(=O)[C@@H]1CSSC[C@@H]2NC(=O)[C@H](C)NC(=O)[C@H](CCCNC(=N)N)NC(=O)[C@H](CCCCN)NC(=O)[C@H](CO)NC(=O)[C@H](CC(=O)O)NC(=O)[C@@H]3CSSC[C@H](NC(=O)[C@H](CCCNC(=N)N)NC(=O)[C@H](CC(C)C)NC(=O)CNC(=O)[C@H](CCC(=O)O)NC(=O)[C@H](CSSC[C@H](NC(=O)[C@@H](N)Cc4ccc(O)cc4)C(=O)N[C@@H](CCC(N)=O)C(=O)N[C@@H](CCCCN)C(=O)N[C@@H](C)C(=O)N[C@@H](CCSC)C(=O)N[C@@H](Cc4c[nH]c5ccccc45)C(=O)N[C@@H]([C@@H](C)O)C(=O)N3)NC2=O)C(=O)N[C@@H](CCCCN)C(=O)N[C@@H](CC(C)C)C(=O)N[C@@H](Cc2c[nH]c3ccccc23)C(=O)N1)[C@@H](C)CC)C(N)=O [W5A] | 313 ± 260 | – |
| CC[C@H](C)[C@H](NC(=O)[C@@H](NC(=O)[C@H](CCCCN)NC(=O)[C@H](CCCNC(=N)N)NC(=O)[C@@H]1CSSC[C@@H]2NC(=O)[C@H](C)NC(=O)[C@H](CCCNC(=N)N)NC(=O)[C@H](CCCCN)NC(=O)[C@H](CO)NC(=O)[C@H](CC(=O)O)NC(=O)[C@@H]3CSSC[C@H](NC(=O)[C@H](CCCNC(=N)N)NC(=O)[C@H](CC(C)C)NC(=O)CNC(=O)[C@H](CCC(=O)O)NC(=O)[C@H](CSSC[C@H](NC(=O)[C@@H](N)Cc4ccc(O)cc4)C(=O)N[C@@H](CCC(N)=O)C(=O)N[C@@H](CCCCN)C(=O)N[C@@H](Cc4c[nH]c5ccccc45)C(=O)N[C@@H](CCSC)C(=O)N[C@@H](Cc4c[nH]c5ccccc45)C(=O)N[C@@H]([C@@H](C)O)C(=O)N3)NC2=O)C(=O)N[C@@H](CCCCN)C(=O)N[C@@H](CC(C)C)C(=O)N[C@@H](Cc2c[nH]c3ccccc23)C(=O)N1)[C@@H](C)CC)C(N)=O [JZTX-V] | – | IC50 ([1]; three to six cells, read-out: IC50 on rNaV1.4): 5.12 ± 0.87 nM; inhibition of hNaV1.7 inward current (Figure 1b) [2]: approximately 45%; inhibition of hNaV1.3 inward current (Figure 1c) [3]: ~35%; decrease of hNaV1.5 activation (peak current) ([4]; 500 nM toxin, n = 8, −10 mV from −100 mV): 43% ± 6.5%; IC50 ([4]; HEK 293 cells with β1 subunit, 50-ms depolarization to −10 mV from −100 mV every 5 s, Hill fit, mean ± S.E., three to six cells, room temperature): 2700 ± 779 nM |
| CC[C@H](C)[C@H](NC(=O)[C@@H](NC(=O)[C@H](CCCCN)NC(=O)[C@H](CCCNC(=N)N)NC(=O)[C@@H]1CSSC[C@@H]2NC(=O)[C@H](C)NC(=O)[C@H](CCCNC(=N)N)NC(=O)[C@H](CCCCN)NC(=O)[C@H](CO)NC(=O)[C@H](CC(=O)O)NC(=O)[C@@H]3CSSC[C@H](NC(=O)[C@H](CCCNC(=N)N)NC(=O)[C@H](CC(C)C)NC(=O)CNC(=O)[C@H](CCC(=O)O)NC(=O)[C@H](CSSC[C@H](NC(=O)[C@@H](N)Cc4ccc(O)cc4)C(=O)N[C@@H](CCC(N)=O)C(=O)N[C@@H](CCCCN)C(=O)N[C@@H](Cc4c[nH]c5ccccc45)C(=O)N[C@@H](C)C(=O)N[C@@H](Cc4c[nH]c5ccccc45)C(=O)N[C@@H]([C@@H](C)O)C(=O)N3)NC2=O)C(=O)N[C@@H](CCCCN)C(=O)N[C@@H](CC(C)C)C(=O)N[C@@H](Cc2c[nH]c3ccccc23)C(=O)N1)[C@@H](C)CC)C(N)=O [M6A] | 252 ± 450 | – |
| CC[C@H](C)[C@H](NC(=O)[C@@H](NC(=O)[C@H](CCCCN)NC(=O)[C@H](CCCNC(=N)N)NC(=O)[C@@H]1CSSC[C@@H]2NC(=O)[C@H](C)NC(=O)[C@H](CCCNC(=N)N)NC(=O)[C@H](CCCCN)NC(=O)[C@H](CO)NC(=O)[C@H](CC(=O)O)NC(=O)[C@@H]3CSSC[C@H](NC(=O)[C@H](CCCNC(=N)N)NC(=O)[C@H](CC(C)C)NC(=O)CNC(=O)[C@H](CCC(=O)O)NC(=O)[C@H](CSSC[C@H](NC(=O)[C@@H](N)Cc4ccc(O)cc4)C(=O)N[C@@H](CCC(N)=O)C(=O)N[C@@H](CCCCN)C(=O)N[C@@H](Cc4c[nH]c5ccccc45)C(=O)N[C@@H](CCSC)C(=O)N[C@@H](C)C(=O)N[C@@H]([C@@H](C)O)C(=O)N3)NC2=O)C(=O)N[C@@H](CCCCN)C(=O)N[C@@H](CC(C)C)C(=O)N[C@@H](Cc2c[nH]c3ccccc23)C(=O)N1)[C@@H](C)CC)C(N)=O [W7A] | 1920 ± 310 | – |
| CC[C@H](C)[C@H](NC(=O)[C@@H](NC(=O)[C@H](CCCCN)NC(=O)[C@H](CCCNC(=N)N)NC(=O)[C@@H]1CSSC[C@@H]2NC(=O)[C@H](C)NC(=O)[C@H](CCCNC(=N)N)NC(=O)[C@H](CCCCN)NC(=O)[C@H](CO)NC(=O)[C@H](CC(=O)O)NC(=O)[C@@H]3CSSC[C@H](NC(=O)[C@H](CCCNC(=N)N)NC(=O)[C@H](CC(C)C)NC(=O)CNC(=O)[C@H](CCC(=O)O)NC(=O)[C@H](CSSC[C@H](NC(=O)[C@@H](N)Cc4ccc(O)cc4)C(=O)N[C@@H](CCC(N)=O)C(=O)N[C@@H](CCCCN)C(=O)N[C@@H](Cc4c[nH]c5ccccc45)C(=O)N[C@@H](CCSC)C(=O)N[C@@H](Cc4c[nH]c5ccccc45)C(=O)N[C@@H]([C@@H](C)O)C(=O)N3)NC2=O)C(=O)N[C@@H](C)C(=O)N[C@@H](CC(C)C)C(=O)N[C@@H](Cc2c[nH]c3ccccc23)C(=O)N1)[C@@H](C)CC)C(N)=O [K22A] | 659 ± 11 | – |
| CC[C@H](C)[C@H](NC(=O)[C@@H](NC(=O)[C@H](CCCCN)NC(=O)[C@H](CCCNC(=N)N)NC(=O)[C@@H]1CSSC[C@@H]2NC(=O)[C@H](C)NC(=O)[C@H](CCCNC(=N)N)NC(=O)[C@H](CCCCN)NC(=O)[C@H](CO)NC(=O)[C@H](CC(=O)O)NC(=O)[C@@H]3CSSC[C@H](NC(=O)[C@H](C)NC(=O)[C@H](CC(C)C)NC(=O)CNC(=O)[C@H](CCC(=O)O)NC(=O)[C@H](CSSC[C@H](NC(=O)[C@@H](N)Cc4ccc(O)cc4)C(=O)N[C@@H](CCC(N)=O)C(=O)N[C@@H](CCCCN)C(=O)N[C@@H](Cc4c[nH]c5ccccc45)C(=O)N[C@@H](CCSC)C(=O)N[C@@H](Cc4c[nH]c5ccccc45)C(=O)N[C@@H]([C@@H](C)O)C(=O)N3)NC2=O)C(=O)N[C@@H](CCCCN)C(=O)N[C@@H](CC(C)C)C(=O)N[C@@H](Cc2c[nH]c3ccccc23)C(=O)N1)[C@@H](C)CC)C(N)=O [R20A] | 2100 ± 280 | – |
